Measured values as given in article PMC10744391, “Sulfated Triterpene Glycosides from the Far Eastern Sea Cucumber Cucumaria djakonovi: Djakonoviosides C1, D1, E1, and F1; Cytotoxicity against Human Breast Cancer Cell Lines; Quantitative Structure–Activity Relationships” (Marine Drugs, 2023).
“Also recorded” adds a separate entry of the source. Where a name gives a salt, the structure may show the parent alone. Read-outs that look alike come from different tables or passages of the source.

What was measured:
MDA-MB-231 cells [1] = assay: Wound scratch migration assay, MDA-MB-231; format: cell-based, human; settings: MDA-MB-231, concentration 1 μM, 24 h of incubation
Procedure: (§1) Attached to special migration plate plastic bottom MCF-7 or MDA-MB-231 cells were separated by a silicone insert (Culture-insert 2 Well 24, ibiTreat). After removing an insert, gap between the cells was 500 ± 50 μm. Cell debris and floating cells were deleted by washing twice with PBS; 10 μM of 5 mM initial solution of CFDA SE ((5,6)-carboxyfluorescein succinimidyl ester) (LumiTrace CFDA SE kit, Lumiprobe, Moscow, Russia) in DMSO was dissolved in PBS and added to cells for 5 min at 37 °C; after washing twice with PBS, the fresh culture medium was added. Then, cells were treated with various concentrations of glycosides or culture medium only (vehicle control) and left for 24 and 72 h. Cell migration into the wound area was observed under a fluorescence microscope (MIB-2-FL, LOMO, Russia) with objective 10× magnification.

[2] = tested on: human breast cancer cell lines MCF-7, T-47D and MDA-MB-231; assay: Cytotoxic activity (MTT assay), statements on the human breast cancer cell lines together; format: cell-based
Source text: Human erythrocytes were purchased from the Station of Blood Transfusion, Vladivostok. Human mammary epithelial cell line MCF-10A CRL-10317, human breast cancer cell lines T-47D HTB-133, MCF-7 HTB-22, and MDA-MB-231 CRM-HTB-26 were received from ATCC (Manassas, VA, USA). Culturing conditions: medium of RPMI-1640 with 1% penicillin/streptomycin (Biolot, St. Petersburg, Russia) and 10% fetal bovine serum (FBS) (Biolot, St. Petersburg, Russia) for T-47D cell line; Minimum Essential Medium (MEM) with 1% penicillin/streptomycin sulfate (Biolot, St. Petersburg, Russia) and FBS (Biolot, St. Petersburg, Russia) to a final concentration of 10% for MCF-7 and MDA-MB-231 cells; DMEM/F12 medium with 10% FBS, 20 ng/mL EGF, […], 100 ng/mL cholera toxin, 10 μg/mL insulin, and 1% penicillin/streptomycin (Bioinnlabs, Russia) for MCF-10A cell line.
Methodology: to each well of 96-well plates, the cell suspension (180 µL) with solution (20 µL) of tested glycoside in the certain concentration was placed (MCF-10A, MCF-7, T-47D, and MDA-MB-231—7 × 10^3 cells per well) and incubated in the atmosphere with 5% CO2 at 37 °C for 24 h. The times of incubation of cucumarioside A2-5 (6) and djakonoviosides C1 (1) and E1 (3), at concentrations of 0.5–12.0 μM with T-47D, MCF-7, or MDA-MB-231 cells, were 24, 48, and 72 hrs. Then, the solutions of tested compounds with medium were replaced by 100 µL of fresh medium, and 10 µL of 3-(4,5-dimethylthiazol-2-yl)-2,5-diphenyltetrazolium bromide (MTT) (PanReac, AppliChem, Darmstadt, Germany) stock solution (5 mg/mL) was added to each well and incubated for 4 h, followed by the addition of 100 µL of SDS-HCl solution (1 g SDS/10 mL d-H2O/17 µL 6 N HCl) and further incubated for 18 h. Multiskan FC microplate photometer (Thermo Fisher Scientific, Waltham, MA, USA) was used to measure the absorbance of the converted dye formazan at 570 nm. The concentration caused 50% cell metabolic activity inhibition (IC50), which expresses the cytotoxic activity of each glycoside. The experiments were conducted in triplicate, p ≤ 0.05.

[3] = tested on: T-47D human breast cancer cell line; assay: cells; format: cell-based; settings: for IC50: Homo sapiens, T47D, read-out: Cytotoxicity, IC50, T-47D
[4] = tested on: MCF-7 human breast cancer cell line; assay: cells; format: cell-based; settings: for IC50: read-out: Cytotoxicity, IC50, MCF-7; for Selectivity Index (SI), MCF-7: ratio of IC50 for healthy (MCF-10A) and cancer cells
human erythrocytes = assay: Hemolytic activity against human erythrocytes; format: cell-based; settings: human erythrocytes; for HC50: Erythrocyte, 1 h at 37 °C, dose causing lysis of 50% erythrocytes, read-out: ED50, Erythrocytes (hemolytic activity); for hemolytic activity (in words): concentration range up to 50 µM
Procedure: Human blood (B(III) Rh+) was used to obtain erythrocytes by centrifuging 450× g three times for 5 min with phosphate-buffered saline (PBS) (pH 7.4) at 4 °C on centrifuge LABOFUGE 400R (Heraeus, Hanau, Germany). Ice-cold PBS (pH 7.4) was used for resuspension of erythrocytes residue to a final optical density of 1.5 at 700 nm, which was kept on ice. Then, 20 µL of tested compound solution or control—djakonovioside A1 [5]—were added to 180 µL of erythrocyte suspension in V-bottom 96-well plates and exposed for 1 h at 37 °C. Next, centrifugation at 900× g for 10 min on laboratory centrifuge LMC-3000 (Biosan, Riga, Latvia), led to layers’ separation, and 100 µL of supernatant was carefully decanted and transferred into new flat-plate each. The values of erythrocyte lysis were measured on microplate photometer Multiskan FC (Thermo Fisher Scientific, Waltham, MA, USA) at λ = 570 nm as hemoglobin concentration in supernatant. The effective dose, causing lysis of 50% erythrocytes (ED50), was calculated with SigmaPlot 14.0 software. All the experiments were carried out in triple repetitions, p ≤ 0.05.

in vitro = format: cell-based; settings: human
[5] = tested on: triple-negative MDA-MB-231 human breast cancer cell line; assay: cells; format: cell-based; settings: for IC50: Homo sapiens, read-out: Cytotoxicity, IC50, MDA-MB-231; for Selectivity Index (SI), MDA-MB-231: ratio of IC50 for healthy (MCF-10A) and cancer cells
MDA-MB-231 cells [6] = assay: Colony formation (clonogenic) assay, MDA-MB-231; format: cell-based, human; settings: 10 days; for inhibitory effect on the formation of colonies: MDA-MB-231, concentration 2 μM
Procedure: (§2) The influence of glycosides on colony formation by MCF-7 or MDA-MB-231 cells was tested by the clonogenic assay. Cell density: 1 × 10^3 for MDA-MB-231 and 0.3 × 10^3 for MCF-7 cells per well; cell culture: MEM media, 10% FBS, 10,000 U/mL of penicillin, and 10,000 μg/mL of streptomycin supplemented or not (control) with different concentration of glycosides; incubation conditions: 10 days, 37 °C, atmosphere with 5% CO2; obtained: visible to eye colonies (at least 50 cells per colony); fixation with methanol (25 min); staining with 0.5% solution of crystal violet (25 min); washing and air-drying of plates.

MCF-7 cells [7] = assay: Wound scratch migration assay, MCF-7; format: cell-based, human; settings: MCF-7, concentrations below EC50, 72 h
Procedure: as §1

MCF-7 cells [8] = assay: Colony formation (clonogenic) assay, MCF-7; format: cell-based, human; settings: MCF-7, concentration 2 μM, 10 days
Procedure: as §2

Structure (SMILES): COC1C(O)C(COS(=O)(=O)O)OC(OC2C(O)C(COS(=O)(=O)O)OC(OC3C(C)OC(OC4C(OC5CCC6(C)C7=CCC8(C)C(C(C)=O)CCC8(C)C7CCC6C5(C)C)OCC(OS(=O)(=O)O)C4O)C(OC4OCC(O)C(O)C4O)C3O)C2O)C1O (centres unmarked) (hydrate or solvate) [isokoreoside A]
- melting point: 215 °C

Structure (SMILES): COC1C(O)C(CO)OC(OC2C(O)C(CO)OC(OC3C(C)OC(OC4C(OC5CCC6(C)C7CCC89C(=O)OC(C)(CC(=O)CC(C)C)C8C(OC(C)=O)CC9(C)C7=CCC6C5(C)C)OCC(OS(=O)(=O)O)C4O)C(OC4OCC(O)C(O)C4O)C3O)C2O)C1O (centres unmarked) [cucumarioside A2-5]
- inhibition of cell migration (scratch assay) (MDA-MB-231 cells [1]; 1 µM): about 85 % as compared to the control
- inhibition of cell migration (scratch assay) (MDA-MB-231 cells [1]; listed as Cucumarioside A2-5, 1 µM): 85 % as compared to the control
- cytotoxicity on prolonged incubation (in words) ([2]; incubation for 48 and 72 h, 1 on MDA-MB-231, 6 on T-47D and MDA-MB-231): did not lose cytotoxicity over time
- IC50 ([3]; MTT, 24 h incubation): 5.81 ± 0.86 µM
- Selectivity Index (SI), T-47D ([3]; ratio of IC50 for healthy (MCF-10A) and cancer cells): 2.41
- IC50 ([4]; Homo sapiens, MCF7, MTT, 24 h incubation): 25.7 ± 1.49 µM
- Selectivity Index (SI), MCF-7 [4]: 0.55
- HC50 (human erythrocytes): 1.63 ± 0.13 µM
- IC50 (in vitro; MTT, 24 h incubation, read-out: Cytotoxicity, IC50, MCF-10A): 14 ± 1.03 µM
- IC50 ([5]; MDA-MB-231, MTT, 24 h incubation): 2.58 ± 0.1 µM
- Selectivity Index (SI), MDA-MB-231 [5]: 5.43

Structure (SMILES): C=C(C)CCCC1(C)OC(=O)C23CCC4C(=CCC5C(C)(C)C(OC6OCC(OS(=O)(=O)O)C(O)C6OC6OCC(OC7OC(CO)C(O)C(OC8OC(CO)C(O)C(OC)C8O)C7O)C(O)C6OC6OCC(O)C(O)C6O)CCC45C)C2(C)CC(OC(C)=O)C13 [djakonovioside C1, 3β-O-{3-O-methyl-β-D-glucopyranosyl-(1→3)-β-D-glucopyranosyl-(1→4)-[(1→2)-β-D-xylopyranosyl]-β-D-xylopyranosyl-(1→2)-4-O-sodium sulfate-β-D-xylopyranosyl}-16β-acetoxyholosta-7,25-dien]
- cytotoxicity on prolonged incubation (in words) [2]: did not lose cytotoxicity over time
- IC50 ([3]; 24 h): 16.8 ± 0.76 µM
- IC50 ([4]; Homo sapiens, MCF7, 24 h): 38.6 ± 2.36 µM
- Selectivity Index (SI), MCF-7 [4]: 0.56
- HC50 (human erythrocytes): 8.55 ± 0.04 µM
- hemolytic activity (in words) (human erythrocytes; listed as Djakonovioside C1): slightly lower activity
- inhibitory effect on the formation and growth of colonies (MDA-MB-231 cells [6]; MDA-MB-231, concentration 1 μM): approximately 25 % of the control
- inhibitory effect on the formation of colonies (MDA-MB-231 cells [6]): approximately 25 % of the control
- IC50 at 24 h (in vitro): 21.8 ± 0.72 µM
- IC50 ([5]; MDA-MB-231, 24 h): 7.67 ± 0.32 µM
- Selectivity Index (SI), MDA-MB-231 [5]: 2.84

Structure (SMILES): C=C(C)CCCC1(C)OC(=O)C23CCC4C(=CCC5C(C)(C)C(OC6OCC(OS(=O)(=O)O)C(O)C6OC6OC(CO)C(OC7OC(COS(=O)(=O)O)C(O)C(OC8OC(COS(=O)(=O)O)C(O)C(OC)C8O)C7O)C(O)C6O)CCC45C)C2(C)CC(OC(C)=O)C13 [djakonovioside E1, 3β-O-[6-O-sodium sulfate-3-O-methyl-β-D-glucopyranosyl-(1→3)-6-O-sodium sulfate-β-D-glucopyranosyl-(1→4)-β-D-glucopyranosyl-(1→2)-4-O-sodium sulfate-β-D-xylopyranosyl]-16β-acetoxyholosta-7,25-dien]
- IC50 ([3]; 24 h): > 50 µM
- IC50 ([4]; Homo sapiens, MCF7, 24 h): 1.52 ± 0.14 µM
- EC50 ([4]; Homo sapiens, MCF7, MTT, 48 h incubation, read-out: EC50, MCF-7 cells, 48 h incubation (antiproliferative effect)): 0.78 ± 0.32 µM
- Selectivity Index (SI), MCF-7 [4]: >32.89
- HC50 (human erythrocytes): 21.7 ± 0.94 µM
- hemolytic activity (in words) (human erythrocytes): weakly hemolytic; also recorded: low hemolytic activity
- migration of MCF-7 cells (in words) (MCF-7 cells [7]): reliable blockage of the migration
- inhibitory effect on the formation of colonies (MDA-MB-231 cells [6]): 35.68 ± 2.00 % of the control
- IC50 at 24 h (in vitro): > 50 µM
- IC50 ([5]; MDA-MB-231, 24 h): 2.19 ± 0.17 µM
- Selectivity Index (SI), MDA-MB-231 [5]: >22.83
- inhibitory effect on the formation of colonies (MCF-7 cells [8]): 30.73 ± 0.49 % of the control
